In patent US20020137929A1, “1 - (3-heterocyclylphenyl) isothiourea, -isourea, -guanidine and -amidine herbicidal agents” (Intellectual Property Department, BASF Aktiengesellschaft, priority 1998, published 2002):

Legend:
MOOVA (Monochoria) = assay: Preemergence weed control under flooded paddy conditions; format: in vivo, Monochoria vaginalis; details: rated 3-4 weeks after treatment
Method in brief: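 Visual injury scored 0-9 against control three to four weeks post-treatment, greenhouse-grown. Application: acetone/water (50/50) solutions dosed directly into flood water (1.5-3 cm over silt loam, planted top 0.5 cm), roughly 0.0313 to 0.500 kg/ha active ingredient.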

ZEAMX (Corn, Field) = assay: Preemergence herbicidal evaluation; format: in vivo, Zea mays; details: rated 4-5 weeks after treatment
Method in brief: (§1)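 Sown cups got a single aqueous acetone spray of test compound (roughly 0.0156–0.500 kg/ha) before seedlings emerged. Evaluation, 4–5 weeks on, used a 0–9 visual scale covering plant stand, vigor, size, malformation, chlorosis and general appearance compared with controls.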

CYPIR (Rice Flatsedge) [1] = assay: Preemergence weed control under flooded paddy conditions; format: in vivo, Cyperus iria; details: rated 3-4 weeks after treatment
Method in brief: (§2)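 Herbicidal effect is scored visually on a 0-9 scale against an untreated control, three to four weeks after compounds are pipetted into the flood water (1.5 to 3 cm deep) over seeds planted in silt loam at 0.5 cm depth. Rates: about 0.0313 to 0.500 kg/ha.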

ECHCG (Barnyardgrass) = assay: Postemergence herbicidal evaluation; format: in vivo, Echinochloa crus-galli; details: for ECHCG herbicidal rating: postemergence
Method in brief: (§3)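 Scores (0–9) reflect plant stand, vigor, malformation, size, chlorosis and general appearance relative to control, read 4 to 5 weeks after treatment and averaged where tests were repeated. Application: about 0.0156–0.500 kg/ha sprayed at 40 psi onto two-week seedlings.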

[2] = test system: ECHORC (Watergrass (Calif.)); assay: Preemergence weed control under flooded paddy conditions; format: in vivo, Echinochloa oryzoides; details: rated 3-4 weeks after treatment
Method in brief: as §2

[3] = test system: TRZAWR (Wheat, Winter, cv Riband); assay: Preemergence herbicidal evaluation; format: in vivo, Triticum aestivum; details: rated 4-5 weeks after treatment
Method in brief: as §1

CYPIR (Rice Flatsedge) [4] = assay: Postemergence weed control under flooded paddy conditions; format: in vivo, Cyperus iria; details: postemergence weeds, 3-4 weeks after treatment
Method in brief: (§4)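 Injury ratings (0–9 scale covering stand, vigor, malformation, size, chlorosis and overall appearance versus control) were made three to four weeks after treatment. Test material, about 0.0313 to 0.500 kg/ha a.i. in 50/50 v/v aqueous/acetone, was added to flood water 1.5 to 3 cm deep over 3 to 5 cm weeds and 1.5 to 2.5 leaf rice.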

ORYSAT (Rice, Tebonnet) = assay: Postemergence herbicidal evaluation; format: in vivo, Oryza sativa, (L.) Tebonnet; details: for ORYSAT herbicidal rating: postemergence
Method in brief: as §3

SETVI (Foxtail, Green) = assay: Postemergence herbicidal evaluation; format: in vivo, Setaria viridis; details: for SETVI herbicidal rating: postemergence
Method in brief: as §3

[5] = test system: SAGPY (Arrowhead (Pygmaea)); assay: Postemergence weed control under flooded paddy conditions; format: in vivo, Sagittaria pygmaea; details: postemergence weeds, 3-4 weeks after treatment
Method in brief: as §4

ABUTH (Velvetleaf) = assay: Postemergence herbicidal evaluation; format: in vivo, Abutilon theophrasti; details: for ABUTH herbicidal rating: postemergence
Method in brief: as §3

[6] = test system: IPOHE (Morningglory, Ivyleaf); assay: Preemergence herbicidal evaluation; format: in vivo, Ipomoea hederacea; details: rated 4-5 weeks after treatment
Method in brief: as §1

GALAP (Galium) = assay: Postemergence herbicidal evaluation; format: in vivo, Galium aparine; details: for GALAP herbicidal rating: postemergence
Method in brief: as §3

CYPSE (Flatsedge) = assay: Postemergence weed control under flooded paddy conditions; format: in vivo, Cyperus serotinus; details: postemergence weeds, 3-4 weeks after treatment
Method in brief: as §4

CCOC(=O)CN1C(=O)C(=C(C)C)S/C1=N/c1cc(-n2c(=O)cc(C(F)(F)F)n(C)c2=O)c(F)cc1Cl [Compound 20, Ethyl 2-{{2-chloro-5-[3,6-dihydro-3-methyl-2,6-dioxo-4-(trifluoromethyl)-1(2H)-pyrimidinyl]-4-fluorophenyl}imino}-5-isopropylidene-4-oxo-3-thiazolidineacetate]
Herbicidal rating MOOVA (MOOVA (Monochoria); 0.1160 kg/ha): 9.0
Herbicidal rating MOOVA (MOOVA (Monochoria); 0.2310 kg/ha): 9.0
Herbicidal rating MOOVA (MOOVA (Monochoria); 0.4630 kg/ha): 9.0
ZEAMX preemergence herbicidal rating (ZEAMX (Corn, Field); rate 0.0625 kg/ha): 0.0
ZEAMX preemergence herbicidal rating (ZEAMX (Corn, Field); rate 0.1250 kg/ha): 0.0
ZEAMX preemergence herbicidal rating (ZEAMX (Corn, Field); rate 0.2500 kg/ha): 0.0
Herbicidal rating CYPIR (CYPIR (Rice Flatsedge) [1]; 0.1160 kg/ha): 0.0
Herbicidal rating CYPIR (CYPIR (Rice Flatsedge) [1]; 0.2310 kg/ha): 0.0
Herbicidal rating CYPIR (CYPIR (Rice Flatsedge) [1]; 0.4630 kg/ha): 0.0
ECHCG herbicidal rating (ECHCG (Barnyardgrass); rate 0.0158 kg/ha): 1.0
ECHCG herbicidal rating (ECHCG (Barnyardgrass); rate 0.0315 kg/ha): 1.0
ECHCG herbicidal rating (ECHCG (Barnyardgrass); rate 0.0630 kg/ha): 2.0
Herbicidal rating ECHORC ([2]; 0.1160 kg/ha): 7.0
Herbicidal rating ECHORC ([2]; 0.2310 kg/ha): 7.0
Herbicidal rating ECHORC ([2]; 0.4630 kg/ha): 7.0
TRZAWR preemergence herbicidal rating ([3]; rate 0.0625 kg/ha): 0.0
TRZAWR preemergence herbicidal rating ([3]; rate 0.1250 kg/ha): 0.0
TRZAWR preemergence herbicidal rating ([3]; rate 0.2500 kg/ha): 0.0
Herbicidal rating CYPIR (CYPIR (Rice Flatsedge) [4]; rate 0.1160 kg/ha): 0.0
Herbicidal rating CYPIR (CYPIR (Rice Flatsedge) [4]; rate 0.2310 kg/ha): 0.0
Herbicidal rating CYPIR (CYPIR (Rice Flatsedge) [4]; rate 0.4630 kg/ha): 0.0
ORYSAT herbicidal rating (ORYSAT (Rice, Tebonnet); rate 0.0158 kg/ha): 2.0
ORYSAT herbicidal rating (ORYSAT (Rice, Tebonnet); rate 0.0315 kg/ha): 2.0
ORYSAT herbicidal rating (ORYSAT (Rice, Tebonnet); rate 0.0630 kg/ha): 3.0
SETVI herbicidal rating (SETVI (Foxtail, Green); rate 0.0158 kg/ha): 1.0
SETVI herbicidal rating (SETVI (Foxtail, Green); rate 0.0315 kg/ha): 1.0
SETVI herbicidal rating (SETVI (Foxtail, Green); rate 0.0630 kg/ha): 4.0
Herbicidal rating SAGPY ([5]; rate 0.1160 kg/ha): 0.0
Herbicidal rating SAGPY ([5]; rate 0.2310 kg/ha): 0.0
Herbicidal rating SAGPY ([5]; rate 0.4630 kg/ha): 3.0
ABUTH herbicidal rating (ABUTH (Velvetleaf); rate 0.0158 kg/ha): 9.0
ABUTH herbicidal rating (ABUTH (Velvetleaf); rate 0.0315 kg/ha): 9.0
ABUTH herbicidal rating (ABUTH (Velvetleaf); rate 0.0630 kg/ha): 9.0
IPOHE preemergence herbicidal rating ([6]; rate 0.0625 kg/ha): 0.0
IPOHE preemergence herbicidal rating ([6]; rate 0.1250 kg/ha): 0.0
IPOHE preemergence herbicidal rating ([6]; rate 0.2500 kg/ha): 2.0
GALAP herbicidal rating (GALAP (Galium); rate 0.0158 kg/ha): 1.0
GALAP herbicidal rating (GALAP (Galium); rate 0.0315 kg/ha): 2.0
GALAP herbicidal rating (GALAP (Galium); rate 0.0630 kg/ha): 6.0
Herbicidal rating CYPSE (CYPSE (Flatsedge); rate 0.1160 kg/ha): 5.0
Herbicidal rating CYPSE (CYPSE (Flatsedge); rate 0.2310 kg/ha): 5.0
Herbicidal rating CYPSE (CYPSE (Flatsedge); rate 0.4630 kg/ha): 5.0

CCOC(=O)CN1C(=O)C(CC(=O)OCc2ccccc2)OC1=Nc1cc(-n2c(=O)cc(C(F)(F)F)n(C)c2=O)c(F)cc1Cl (stereo not drawn) [Compound 40, 2-{{2-Chloro-5-[3,6-dihydro-3-methyl-2,6-dioxo-4-(trifluoromethyl)-1(2H)-pyrimidinyl]-4-fluorophenyl}imino}-4-oxo-3,5-oxazolidinediacetic acid, 5-benzyl ethyl ester]
Herbicidal rating MOOVA (MOOVA (Monochoria); 0.0313 kg/ha): 9.0
Herbicidal rating MOOVA (MOOVA (Monochoria); 0.0625 kg/ha): 9.0
Herbicidal rating MOOVA (MOOVA (Monochoria); 0.1250 kg/ha): 9.0
Herbicidal rating MOOVA (MOOVA (Monochoria); 0.2500 kg/ha): 9.0
Preemergence herbicidal rating ZEAMX (ZEAMX (Corn, Field); rate 0.0313 kg/ha): 0.0
Preemergence herbicidal rating ZEAMX (ZEAMX (Corn, Field); rate 0.0625 kg/ha): 0.0
Preemergence herbicidal rating ZEAMX (ZEAMX (Corn, Field); rate 0.1250 kg/ha): 0.0
Preemergence herbicidal rating ZEAMX (ZEAMX (Corn, Field); rate 0.2500 kg/ha): 1.0
Herbicidal rating CYPIR (CYPIR (Rice Flatsedge) [1]; 0.0313 kg/ha): 0.0
Herbicidal rating CYPIR (CYPIR (Rice Flatsedge) [1]; 0.0625 kg/ha): 0.0
Herbicidal rating CYPIR (CYPIR (Rice Flatsedge) [1]; 0.1250 kg/ha): 0.0
Herbicidal rating CYPIR (CYPIR (Rice Flatsedge) [1]; 0.2500 kg/ha): 0.0
Postemergence herbicidal rating ECHCG (ECHCG (Barnyardgrass); Rate 0.0158 kg/ha): 1.0
Postemergence herbicidal rating ECHCG (ECHCG (Barnyardgrass); Rate 0.0315 kg/ha): 7.0
Postemergence herbicidal rating ECHCG (ECHCG (Barnyardgrass); Rate 0.0630 kg/ha): 9.0
Herbicidal rating ECHORC ([2]; 0.0313 kg/ha): 5.0
Herbicidal rating ECHORC ([2]; 0.0625 kg/ha): 5.0
Herbicidal rating ECHORC ([2]; 0.1250 kg/ha): 5.0
Herbicidal rating ECHORC ([2]; 0.2500 kg/ha): 9.0
Preemergence herbicidal rating TRZAWR ([3]; rate 0.0313 kg/ha): 0.0
Preemergence herbicidal rating TRZAWR ([3]; rate 0.0625 kg/ha): 0.0
Preemergence herbicidal rating TRZAWR ([3]; rate 0.1250 kg/ha): 0.0
Preemergence herbicidal rating TRZAWR ([3]; rate 0.2500 kg/ha): 1.0
Herbicidal rating CYPIR (CYPIR (Rice Flatsedge) [4]; rate 0.0313 kg/ha): 0.0
Herbicidal rating CYPIR (CYPIR (Rice Flatsedge) [4]; rate 0.0625 kg/ha): 0.0
Herbicidal rating CYPIR (CYPIR (Rice Flatsedge) [4]; rate 0.1250 kg/ha): 0.0
Herbicidal rating CYPIR (CYPIR (Rice Flatsedge) [4]; rate 0.2500 kg/ha): 0.0
Postemergence herbicidal rating ORYSAT (ORYSAT (Rice, Tebonnet); Rate 0.0158 kg/ha): 2.5
Postemergence herbicidal rating ORYSAT (ORYSAT (Rice, Tebonnet); Rate 0.0315 kg/ha): 3.0
Postemergence herbicidal rating ORYSAT (ORYSAT (Rice, Tebonnet); Rate 0.0630 kg/ha): 3.0
Postemergence herbicidal rating SETVI (SETVI (Foxtail, Green); Rate 0.0158 kg/ha): 1.0
Postemergence herbicidal rating SETVI (SETVI (Foxtail, Green); Rate 0.0315 kg/ha): 7.0
Postemergence herbicidal rating SETVI (SETVI (Foxtail, Green); Rate 0.0630 kg/ha): 9.0
Herbicidal rating SAGPY ([5]; rate 0.0313 kg/ha): 0.0
Herbicidal rating SAGPY ([5]; rate 0.0625 kg/ha): 0.0
Herbicidal rating SAGPY ([5]; rate 0.1250 kg/ha): 0.0
Herbicidal rating SAGPY ([5]; rate 0.2500 kg/ha): 0.0
Postemergence herbicidal rating ABUTH (ABUTH (Velvetleaf); Rate 0.0158 kg/ha): 9.0
Postemergence herbicidal rating ABUTH (ABUTH (Velvetleaf); Rate 0.0315 kg/ha): 9.0
Postemergence herbicidal rating ABUTH (ABUTH (Velvetleaf); Rate 0.0630 kg/ha): 9.0
Preemergence herbicidal rating IPOHE ([6]; rate 0.0313 kg/ha): 0.0
Preemergence herbicidal rating IPOHE ([6]; rate 0.0625 kg/ha): 0.0
Preemergence herbicidal rating IPOHE ([6]; rate 0.1250 kg/ha): 9.0
Preemergence herbicidal rating IPOHE ([6]; rate 0.2500 kg/ha): 9.0
Postemergence herbicidal rating GALAP (GALAP (Galium); Rate 0.0158 kg/ha): 1.0
Postemergence herbicidal rating GALAP (GALAP (Galium); Rate 0.0315 kg/ha): 2.0
Postemergence herbicidal rating GALAP (GALAP (Galium); Rate 0.0630 kg/ha): 4.0
Herbicidal rating CYPSE (CYPSE (Flatsedge); rate 0.0313 kg/ha): 0.0
Herbicidal rating CYPSE (CYPSE (Flatsedge); rate 0.0625 kg/ha): 0.0
Herbicidal rating CYPSE (CYPSE (Flatsedge); rate 0.1250 kg/ha): 0.0
Herbicidal rating CYPSE (CYPSE (Flatsedge); rate 0.2500 kg/ha): 6.0
